The source of these data is US10472315B2, “Inhibitors of methionine aminopeptidases and methods of treating disorders” (THE JOHNS HOPKINS UNIVERSITY, priority 2009, dated 2019).

Each structure is given as a SMILES string. Values after ≈ are worked out from the molar mass of the structure shown. Values joined by “and” are separate entries in the source; they are usually repeats but may differ in a detail not shown here. Identical values can stand only once. “Also recorded” adds a separate entry of the source. Like-named read-outs stand apart in the source and are kept apart here. A value given as a limit tells only on which side of the number the result lay.

The target in one experiment is T1, MtMetAP1c (Mycobacterium tuberculosis, UniProt P9WK19).
T1 construct: made in house; host or cells: E. coli BL21
Briefly: Coupled methionine-proline aminopeptidase assay (Met-Pro-pNA), IC50 determination. Type of experiment: biochemical, M. tuberculosis. The following applies: for inhibition of MtMetAP1c, in words: statement on MtMetAPs / both enzymes. The procedure: (§1) Determination of IC50 of Inhibitors of MtMetAPs and Clustering of Structural Classes of Inhibitors (ASDI-ISIS)
(§2) We determined the concentration needed for 50% inhibition in 96-well plates at final concentrations ranging from 100 μM-300 nM (for 81 compounds that were available in larger quantities). The total reaction volume was 50 μL and each reaction contained each MtMetAP1 respectively and 40 mM Hepes buffer (p.H 7.5), 100 mM NaCl, 100 μg/mL BSA, 0.1 U/mL ProAP, 1.5 μM CoCl2, 600 μM substrate (Met-Pro-pNA). The enzyme was pre-incubated with compounds for 20 min at room temperature followed by addition of substrate. The reaction was incubated at room temperature for 30 min and monitored at 405 nm on a spectrophotometer. The background hydrolysis was corrected and the data was fitted against the sigmoidal-dose response (variable slope) equation using GraphPad Prism software.

A further experiment addresses T2, MtMetAP1a (Mycobacterium tuberculosis, UniProt P9WK21).
T2 construct: made in house; host or cells: E. coli BL21 (DE3)
The description is as above. Format: biochemical, M. tuberculosis. Particulars: for inhibition of MtMetAP1a, in words: statement on MtMetAPs / both enzymes. The procedure: as §1, §2

The subject of a further experiment is M. tuberculosis H37Rv. As to the kind of experiment: Minimum inhibitory concentration in replicating M. tuberculosis. Type of experiment: cell-based. Particulars: for MIC: Mycobacterium tuberculosis, H37RV, 336 h, read-out: M.I.C. (μg/mL) M. tuberculosis.
In experiment [1] the test system is Aged-cultured M. tuberculosis H37Ra. Briefly: microbe, parasite or virus in culture. Type of experiment: cell-based. Particulars: for MIC: Mycobacterium tuberculosis, H37RA, read-out: M.I.C. (μg/mL) Aged-cultured M. tuberculosis.
[2] abbreviates: recombinant enzyme, 1.5 μM CoCl2, 600 μM Met-Pro-pNA, read-out: IC50 (μM) MtMetAP1a.

T2 sequence (P9WK21 whole entry): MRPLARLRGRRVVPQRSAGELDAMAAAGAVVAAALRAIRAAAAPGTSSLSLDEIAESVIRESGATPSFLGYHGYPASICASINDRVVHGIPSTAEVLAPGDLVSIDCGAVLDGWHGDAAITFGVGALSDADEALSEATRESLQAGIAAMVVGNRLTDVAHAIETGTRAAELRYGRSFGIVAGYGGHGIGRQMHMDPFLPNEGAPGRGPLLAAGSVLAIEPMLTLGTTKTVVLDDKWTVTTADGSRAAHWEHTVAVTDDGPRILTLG
T1 sequence (P9WK19 whole entry): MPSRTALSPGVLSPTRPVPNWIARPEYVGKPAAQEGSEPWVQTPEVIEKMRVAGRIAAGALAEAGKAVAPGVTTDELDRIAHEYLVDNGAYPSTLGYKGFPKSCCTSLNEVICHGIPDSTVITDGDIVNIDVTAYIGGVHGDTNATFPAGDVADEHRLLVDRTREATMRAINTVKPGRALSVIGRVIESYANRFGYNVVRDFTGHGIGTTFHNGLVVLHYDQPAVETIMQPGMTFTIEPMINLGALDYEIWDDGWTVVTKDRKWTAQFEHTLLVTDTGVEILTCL

Take `COc1ccc2c(c1)-c1nc(NC=NO)sc1CC2` [Amidoxime 49, N′-hydroxy-N-(8-methoxy-4,5-dihydronaphtho[1,2-d]thiazol-2-yl)formimidamide]: at MtMetAP1c (relative to amidoxime 48), the “potency against MtMetAP1c when compared to 48” value is “two times less potent”.

As to `CCCN(CCC)C1=C(Cl)C(=O)c2ccccc2C1=O` [Compound 26], on MtMetAP1a (setting [2]), the IC50 was more than 50 µM.

Consider `O=C1C(Cl)=C(Nc2ccccc2)C(=O)c2ccccc21` [Compound 16], for which the IC50 on MtMetAP1a (setting [2]) is more than 50 µM.

For `O=C1C=CC(=O)c2c(O)cccc21` [Compound 23], the IC50 at MtMetAP1a (setting [2]) is more than 50 µM.

With `Cc1cccc(NC2=C(Cl)C(=O)c3ccccc3C2=O)c1` [Compound 17], at MtMetAP1a (setting [2]), the IC50 turned out to be 18.6 ± 6.1 µM.

Consider `Oc1c(Br)cc(Cl)c2cccnc12` [Compound 69, 7-bromo-5-chloroquinolin-8-ol], for which the “inhibition of MtMetAP1a, in words” value against MtMetAP1a is on record as “low micromolar range; also recorded: most potent”. Also, the “inhibition of MtMetAP1c, in words” value against MtMetAP1c is listed as “low micromolar range; also recorded: most potent”.

`O=C(NC1=C(Cl)C(=O)c2ccccc2C1=O)c1cc(C(F)(F)F)cc(C(F)(F)F)c1` [Compound 27]: at MtMetAP1a (setting [2]), the IC50 is more than 50 µM.

Take `ON=CNc1nc2c(s1)CCOc1cc3c(cc1-2)OCO3` [Amidoxime 58]: the IC50 at MtMetAP1a (read-out: inhibitor of MtMetAP1a (potency in text)) was determined as 0.76 µM; at MtMetAP1c (read-out: inhibitor of MtMetAP1c (potency in text)), 0.06 µM. In addition, on MtMetAP1a (relative to amidoxime 48), the “improvement over the lead-like hit 48, MtMetAP1a” value worked out at 48 fold. In addition, on MtMetAP1a, the “inhibition of MtMetAP1a, in words” value is on record as “very potent”. The “improvement over the lead-like hit 48, MtMetAP1c” value on MtMetAP1c (relative to amidoxime 48) came to 7 fold. On MtMetAP1c, the “inhibition of MtMetAP1c, in words” value is on record as “very potent”.

As for `Cc1cc(C)cc(NC2=C(Cl)C(=O)c3ccccc3C2=O)c1` [Compound 19], on MtMetAP1a (setting [2]), the IC50 is 13.9 ± 1 µM.

For the compound `O=C1C(Cl)=C(Oc2ccc(F)cc2)C(=O)c2ccccc21` [Compound 22], at MtMetAP1a (setting [2]), the IC50 came to 7.58 ± 0.28 µM. Further, in the experiment with M. tuberculosis H37Rv, the “increase in MIC values relative to compounds 4 and 20” value was “about a two-fold increase”; the MIC is more than 25 µg/mL.

On to `O=C1C(Cl)=C(N2CCN(c3cccc(Cl)c3)CC2)C(=O)c2ccccc21` [Compound 8], for which the IC50 at MtMetAP1a (setting [2]) was more than 100 µM.

With `CC1=CC(=O)c2c(O)cccc2C1=O` [Compound 24], at MtMetAP1a (setting [2]), the IC50 is more than 50 µM.

With `Cc1ccc(Cl)cc1N1CCN(C2=C(Cl)C(=O)c3ccccc3C2=O)CC1` [Compound 10], the IC50 at MtMetAP1a (setting [2]) is more than 100 µM.

Take `CC1=CC(=O)c2ccccc2C1=O` [Compound 29]: the IC50 at MtMetAP1a (setting [2]) is more than 50 µM.

As for `O=C1C(Cl)=C(N2CCCCC2)C(=O)c2ccccc21` [Compound 3], on MtMetAP1a (setting [2]), the IC50 came out at 8 ± 1.3 µM. The MIC in the experiment on M. tuberculosis H37Rv was more than 25 µg/mL; in experiment [1], more than 27.6 µg/mL.

For `O=C1C(Cl)=C(Cl)C(=O)c2ccccc21` [Compound 4, 2,3-dichloro-1,4-naphthoquinone], the IC50 at MtMetAP1a was determined as 3.3 ± 0.3 µM. In addition, the IC50 against MtMetAP1c was 6.6 ± 1.2 µM. In addition, in the experiment with M. tuberculosis H37Rv, the “M.I.C. (μg/mL) M. tuberculosis” value stood at 10 µg/mL and the MIC came to 10 µg/mL (≈ 44 µM). Moreover, in experiment [1], the “effectiveness against the aged-cultured form compared with the replicating form” value was “equally effective” and the MIC lay within 5.7 to 11.4 µg/mL (≈ 25.1 to 50.2 µM).

Consider `CN1CCN(C2=C(Cl)C(=O)c3ccccc3C2=O)CC1` [Compound 7], for which the IC50 on MtMetAP1a (setting [2]) is more than 100 µM.

As to `O=C1C=C(O)C(=O)c2ccccc21` [Compound 25], the IC50 at MtMetAP1a (setting [2]) is more than 50 µM.

`O=C1C(Oc2ccc(F)cc2)=C(Oc2ccc(F)cc2)C(=O)c2ccccc21` [Compound 21]: the IC50 at MtMetAP1a (setting [2]) is 4.93 ± 0.2 µM. In addition, in the experiment on M. tuberculosis H37Rv, the “increase in MIC values relative to compounds 4 and 20” value is recorded as “about a two-fold increase”; the MIC is more than 25 µg/mL.

Take `O=C1C(Cl)=C(N2C(=O)c3c(Cl)c(Cl)c(Cl)c(Cl)c3C2=O)C(=O)c2ccccc21` [Compound 2]: the IC50 on MtMetAP1a (setting [2]) came out at 4 ± 0.3 µM. In the experiment on M. tuberculosis H37Rv, the “increase in MIC values relative to compounds 4 and 20” value is on record as “about a two-fold increase”; the MIC is 25 µg/mL (≈ 52.6 µM). The MIC in experiment [1] turned out to be 23.8 µg/mL (≈ 50.1 µM).

Consider `O=C1C(Cl)=C(Nc2cccc(F)c2)C(=O)c2ccccc21` [Compound 13], for which the IC50 on MtMetAP1a (setting [2]) is more than 30 µM.

Regarding `COC(=O)c1ccc(NC2=C(Cl)C(=O)c3ccccc3C2=O)cc1` [Compound 14], the IC50 on MtMetAP1a (setting [2]) was more than 30 µM.

As to `O=C1C(Cl)=C(N2CCN(c3ccc(Cl)c(Cl)c3)CC2)C(=O)c2ccccc21` [Compound 9], on MtMetAP1a (setting [2]), the IC50 was more than 100 µM.

Regarding `O=C1C(Cl)=C(NCc2ccc(Cl)cc2)C(=O)c2ccccc21` [Compound 6], the IC50 at MtMetAP1a (setting [2]) was more than 100 µM.

With `NC1=C(Cl)C(=O)c2ccccc2C1=O` [Compound 5], the IC50 at MtMetAP1a (setting [2]) is more than 100 µM.

For the compound `O=C1C(Br)=C(Br)C(=O)c2ccccc21` [Compound 20, 2,3-dibromo-1,4-naphthoquinone], the IC50 on MtMetAP1a (setting [2]) is ~1 µM and 1.14 µM; at MtMetAP1c (recombinant enzyme, 1.5 μM CoCl2, 600 μM Met-Pro-pNA, read-out: IC50 (μM) MtMetAP1c), ~1 µM and 0.71 µM. For the same compound, the MIC in the experiment on M. tuberculosis H37Rv lay in the range of 10 to 25 µg/mL (≈ 31.7 to 79.1 µM). The “effectiveness against the aged-cultured form compared with the replicating form” value in experiment [1] is given as “equally effective”.

With `CC1=C(C/C=C(\C)CCCC(C)CCCC(C)C)C(=O)c2ccccc2C1=O` (centres unmarked) [Compound 28], the IC50 at MtMetAP1a (setting [2]) was more than 50 µM.

In the case of `CN(C)c1ccc(NC2=C(Cl)C(=O)c3ccccc3C2=O)cc1` [Compound 15], the IC50 at MtMetAP1a (setting [2]) was more than 30 µM.

As for `O=C1C(Cl)=C(Nc2cccc(C(F)(F)F)c2)C(=O)c2ccccc21` [Compound 12], on MtMetAP1a (setting [2]), the IC50 was more than 30 µM.

As to `COc1ccc(NC2=C(Cl)C(=O)c3ccccc3C2=O)cc1` [Compound 18], the IC50 at MtMetAP1a (setting [2]) was 15.9 ± 0.6 µM.
